Assay results reported in article PMC5053593, “Tetrahydrobiopterin Supplementation: Elevation of Tissue Biopterin Levels Accompanied by a Relative Increase in Dihydrobiopterin in the Blood and the Role of Probenecid-Sensitive Uptake in Scavenging Dihydrobiopterin in the Liver and Kidney of Rats” (PLoS ONE, 2016).
Counter-ions that a name gives are not always drawn. Like-named read-outs stand apart in the source and are kept apart here.

Experiments:
[1] = rat, in vivo
Excerpt: (§1) In the following sample acquisition, special care to ensure minimal oxidation of BH4 was taken throughout the following procedure. In brief, the abdomen was opened and cannulae were set in place for collecting bile and urine. The blood samples were drawn from the tail vein into a heparin-coated capillary containing a solution of 0.1 M ascorbic acid (less than 5% by volume), and they were then subjected to differential iodine oxidation for BP determination. The urine was collected at intervals from the bladder through an indwelling needle connected to an airtight syringe in which the dead space had been filled with saline containing 50 mM each of ascorbic acid and EDTA (pH 6.8). The urine was immediately mixed with 9 volumes of 10 mM HCl containing 5 mM antioxidant. The aliquots were then subjected to quantitation of BP and creatinine. BP excretion was expressed as BP/creatinine (μmol/mg creatinine) based on the BP concentration (nmol/mL) divided by the time-matched creatinine level (μg/mL). In calculating the cumulative total, the amounts of BP in each fraction were added. Calculations were based on the BP concentration (nmol/mL) multiplied by the respective urine volume (mL) produced between each sampling time point regardless of the creatinine concentration. The bile was also collected from individual rats through a cannula in the bile duct and was immediately subjected to BP determination. The cumulative BP amount was calculated by adding up all samples measured.
(§2) Biopterin was determined essentially according to Fukushima and Nixon and modified as described previously. Animal tissues contain at least 4 chemical species of the reduced biopterin family; BH4-4a-carbinolamine (or 4a-hydroxy-tetrahydrobiopterin), quinonoid dihydrobiopterin and 7,8-dihydrobiopterin as well as BH4. The Fukushima and Nixon method includes tissue homogenization and extraction of pterin compounds followed by measurement of amount of fully oxidized biopterin after differential iodine oxidation under acid and alkaline conditions. With their method, the biopterin quantity remaining after the acid-oxidation was taken as the total biopterin (BP = “BH4” + “BH2” + “oxidized biopterin”) and that which remained after the alkaline-oxidation, as 7,8-dihydrobiopterin (BH2) plus oxidized biopterin. […] Accordingly, in this study, the biopterin amount measured after the acid iodine oxidation was taken as the sum of “BH4” and “BH2” (“BP” = “BH2” + “BH4”), and that after the alkaline oxidation, as the amount of “BH2”. The difference was therefore taken as the “BH4” amount. The BH4 fraction (BH4%; the percentage of BH4 in BP) was calculated for each individual sample. The amounts of BH4 and BH2 were calculated based on molecular weights of 241 g/mol and 239 g/mol, respectively.
The urinary creatinine concentration was measured using a creatininase-HMMPS method according to the manufacturer’s instructions (L-type Creatinine M; Wako Pure Chemical Industries, Osaka, Japan).
Data were expressed as means ±S.E. The statistical significance of two groups with non-repeated determination was analyzed by Student’s t-test. The significance of difference between determinations at different times with individual animal groups was analyzed by the Paired t-test. Significance of difference between three groups was analyzed by Tukey’s test. All the statistical analyses were performed with Pharmaco Basic Ver.15.0.1 (Scientist Co. Ltd., Tokyo). Using results of pterin kinetics, exponential least square approximation was performed with Excel software using Microsoft Office for Mac.

[2] = both, Sprague-Dawley, rat, in vivo
Excerpt: as §1
Biopterin was determined essentially according to Fukushima and Nixon and modified as described previously. […] With their method, the biopterin quantity remaining after the acid-oxidation was taken as the total biopterin (BP = “BH4” + “BH2” + “oxidized biopterin”) and that which remained after the alkaline-oxidation, as 7,8-dihydrobiopterin (BH2) plus oxidized biopterin. […] Accordingly, in this study, the biopterin amount measured after the acid iodine oxidation was taken as the sum of “BH4” and “BH2” (“BP” = “BH2” + “BH4”), and that after the alkaline oxidation, as the amount of “BH2”. […] The BH4 fraction (BH4%; the percentage of BH4 in BP) was calculated for each individual sample. The amounts of BH4 and BH2 were calculated based on molecular weights of 241 g/mol and 239 g/mol, respectively.
Data were expressed as means ±S.E. The statistical significance of two groups with non-repeated determination was analyzed by Student’s t-test. The significance of difference between determinations at different times with individual animal groups was analyzed by the Paired t-test. Significance of difference between three groups was analyzed by Tukey’s test. […]

[3] = both, Sprague-Dawley, rat, in vivo; remark: listed apart in the source
Method: Each blood sample was divided into three portions; one served as a “whole blood” specimen, the second was for the hematocrit determination, and the third was centrifuged (10,000 rpm, 4°C, 5 min) to separate red blood cells (RBCs) from the plasma. The whole blood, plasma, and RBCs were separately subjected to differential iodine oxidation for the BP determination described below. The results were expressed as the amount of BP per unit volume of the original blood sample (plasma + RBC, mL) based on the hematocrit value. The kidneys, liver, and whole brain were removed without prior perfusion, rinsed with saline, blotted, weighed, frozen in liquid nitrogen, and then stored at -80°C until BP determination. BP carryover with the blood was ignored in the liver and kidney. However, for the brain, the BP carryover was estimated using an average blood inclusion of 1.2% (v/w), which was determined by a comparison of the heme content of the blood and brain homogenates based on light absorbance at 415 nm.
as §2

[4] = design: method as in PMID 22318121, PMID 22318121; settings: cited from earlier work

Q: Which results are given for C[C@H](O)[C@H](O)[C@H]1CNc2nc(N)[nH]c(=O)c2N1 [6RBH4, (6R)-L-erythro-5,6,7,8-tetrahydrobiopterin dihydrochloride]?
A: Urinary BP outflow ([1]; both, Sprague-Dawley): 1840 ± 250 nmol; Urinary BP outflow as % of gross outflow obtained by 270 min ([1]; both, Sprague-Dawley): about 58%; Urinary BH4% ([1]; both, Sprague-Dawley, 30 min): 95 ± 1%; Urinary BH4% ([1]; both, Sprague-Dawley, 90 min): 87 ± 2%; Urinary BH4% ([1]; both, Sprague-Dawley, 240 min): ca. 94%; Creatinine-based urinary BP AUC0–270 ([1]; iv, 5 mg/kg): 731 (μmol/mg Cr)•min; Biliary BH4% [2]: ~95%; Biliary BP outflow fit, rate constant k [2]: 0.007 min⁻¹; C0 [2]: 47.2 µM; Cumulative excretion of BP in the bile as % of that in the urine [2]: about 3%; BH4% in blood ([3]; 30 min): 93.9 ±0.6%; BH4% in kidney ([3]; 30 min): 98.0 ±0.2%; BP (nmol) per organ ([3]; 30 min): 76.8 nmol; BP (nmol), sub-total of liver, blood, kidneys, brain ([3]; 30 min): 515 nmol; Brain BP increase over untreated rats ([3]; 30 min): about 43%; Kidney BP over the initial value ([3]; 30 min): 58 fold; Liver BP content ([3]; 30 min): 53.3 nmol/g; Liver BP over the initial value ([3]; 30 min): 9.1 fold; BH4% in blood ([3]; 120 min): 96.2 ±0.1%; BH4% in liver ([3]; 120 min): 98.8 ±0.1%; BP (nmol) per organ ([3]; 120 min): 39.5 nmol; BP (nmol), sub-total of liver, blood, kidneys, brain ([3]; 120 min): 325 nmol; Urinary BP flow, glomerular filtration rate constant k [4]: 0.013 min⁻¹; Urinary BP flow, observed gross rate constant k [4]: 0.043 min⁻¹; Urinary BP flow, tubular secretion rate constant k ([4]; gross minus glomerular rate constant): 0.030 min⁻¹
